≈ marks a conversion by molar mass, not a printed value. Read-outs that look alike come from different tables or passages of the source. Some results are limits rather than exact numbers.

Series [1] concerns Microsporum gypseum IFO 8231. The experiment in a line: Minimum inhibitory concentration (MIC), agar dilution method, standard strains. In kind it is cell-based. The conditions noted are these: for MIC: Nannizzia gypsea, read-out: Minimum inhibitory concentration to standard strains. A general note: In agar dilution the substance is mixed into plates at graded concentrations.
Series [2] has as its system Staphylococcus epidermidis ATCC 12228. The description is as above. The conditions noted are these: for MIC: Staphylococcus epidermidis, ATCC12228, 48 h, read-out: Minimum inhibitory concentration to standard strains; for Minimum inhibitory concentration to standard strains: Staphylococcus epidermidis ATCC 12228, aerobic, 37° C., 48 hrs.
Series [3] deals with Trichophyton mentagrophytes IFO 5466. Described as above. In kind it is cell-based. The conditions noted are these: for MIC: read-out: Minimum inhibitory concentration to standard strains.
Series [4] concerns Staphylococcus aureus ATCC 6538P. The series is described as above. The conditions noted are these: for MIC: Staphylococcus aureus, ATCC6538P, 48 h, read-out: Minimum inhibitory concentration to standard strains; for Minimum inhibitory concentration to standard strains: Staphylococcus aureus ATCC 6538P, aerobic, 37° C., 48 hrs.
The subject of series [5] is Corynebacterium acnes ATCC 11828. The description is as above. The series is classed as cell-based. The conditions noted are these: for MIC: Cutibacterium acnes, read-out: Minimum inhibitory concentration to standard strains.
Series [6] concerns Bacteroides fragilis RIMD 023001. Described as above. The conditions noted are these: 37° C., 60 hrs; for MIC: RIMD023001, anaerobic; for Minimum inhibitory concentration to standard strains: anaerobic. The series is classed as cell-based.
Series [7] has as its system Trichophyton rubrum IFO 5467. Described as above. In kind it is cell-based. The conditions noted are these: for MIC: read-out: Minimum inhibitory concentration to standard strains.
For series [8], the system named is Fusobacterium nucleatum ATCC 25586. The series is described as above. In kind it is cell-based. The conditions noted are these: 37° C., 60 hrs; for MIC: ATCC25586, anaerobic.
The test system of series [9] is Candida albicans ATCC 10261. Described as above. The conditions noted are these: for MIC: ATCC10261, read-out: Minimum inhibitory concentration to standard strains; for Minimum inhibitory concentration to standard strains: yeast, Sabouraud medium.
Series [10] relates to Bacteroides fragilis (48 isolated strains). The experiment in a line: MIC against clinically isolated strains (cumulation percent). In kind it is cell-based. The conditions noted are these: for MIC: 60 h, read-out: range of effective concentration.
For series [11], the system named is Staphylococcus pyogenes ATCC 10389. The experiment in a line: Minimum inhibitory concentration (MIC), agar dilution method, standard strains. The conditions noted are these: aerobic, 37° C., 48 hrs.
The subject of series [12] is Trichophyton mentagrophytes IFO 5810. The experiment in a line: Antifungal activity in vivo by trichophytosis of guinea pig. The conditions noted are these: 1% solution; for Fungal negativity index / Healing index: 0.1 ml once a day for 8 days, guinea pig trichophytosis.
The subject of series [13] is Clostridium perfringens (9 isolated strains). The series is classed as cell-based. The conditions noted are these: 9 isolated strains of clostridium perfringens.
The test system of series [14] is clinically isolated anaerobic bacteria. The series is classed as cell-based. The conditions noted are these: 70 isolated strains of the tested bacteria.
Another series can be described thus: Acute toxicity in mice. The conditions noted are these: for LD50 / Mortalities (Dead/Treated): male mice; for LD50: 23040 min; for Mortalities (Dead/Treated): 16 days.
[15] abbreviates: IFO8231, Microsporum gypseum IFO 8231, aerobic, 168 hrs.
[16] abbreviates: IFO5466, Trichophyton mentagrophytes IFO 5466, aerobic, 168 hrs.
Where [17] appears, read: ATCC11828, Corynebacterium acnes ATCC 11828, anaerobic, 37° C., 60 hrs.
The mark [18] stands for this setting: IFO5467, Trichophyton rubrum IFO 5467, aerobic, 168 hrs.
Setting [19] is: 48 isolated strains of Bacteroides fragilis, 100% efficiency stated for Ratanhiaphenol.

As to `CC1(C)S[C@@H]2[C@H](NC(=O)[C@H](NC(=O)c3cnc4cccnc4c3O)c3ccccc3)C(=O)N2[C@H]1C(=O)O` [M, Apalcillin], the MIC in series [1] (setting [15]) is > 1000 µg/mL; in series [2] it was 25 µg/mL (≈ 47.9 µM); in series [3] (setting [16]) it was > 1000 µg/mL; in [4] it was 50 µg/mL (≈ 95.9 µM); in series [5] (setting [17]), 25 µg/mL (≈ 47.9 µM); in series [6], 50 µg/mL (≈ 95.9 µM). Moreover, the MIC in series [7] (setting [18]) was > 1000 µg/mL; in series [8] it was 12.5 µg/mL (≈ 24 µM).
Consider `COC1=CC(=O)C[C@@H](C)[C@]12Oc1c(Cl)c(OC)cc(OC)c1C2=O` [O, Griseofulvin], for which the MIC is 6.25 µg/mL (≈ 17.7 µM) in [1] (setting [15]); > 1000 µg/mL in series [2]; 6.25 µg/mL (≈ 17.7 µM) in series [3] (setting [16]); > 1000 µg/mL in [9]; > 1000 µg/mL in series [4]; 200 µg/mL (≈ 567 µM) in series [6]. For the same compound, the MIC in [7] (setting [18]) is 6.25 µg/mL (≈ 17.7 µM).
As for `CC1=C(C(=O)O)N2C(=O)[C@@H](NC(=O)[C@H](N)c3ccccc3)[C@H]2SC1` [S, Cefalexin], in series [10] (setting [19]), the MIC was 3.13 to 400 µg/mL (≈ 9.01 to 1150 µM).
In the case of `CN(C)[C@@H]1C(=O)C(C(N)=O)=C(O)[C@@]2(O)C(=O)C3=C(O)c4c(O)cccc4[C@@](C)(O)[C@H]3C[C@@H]12` [R, Tetracycline], in series [10] (Bacteroides fragilis), the MIC is 1.56 to 400 µg/mL (≈ 3.51 to 900 µM).
As for `Cc1cccc(N(C)C(=S)Oc2ccc3ccccc3c2)c1` [P, Tolnaftate], the MIC was 0.1 µg/mL (≈ 0.325 µM) in series [1] (setting [15]); > 1000 µg/mL in [2]; 0.1 µg/mL (≈ 0.325 µM) in series [3] (setting [16]); > 1000 µg/mL in series [9]; > 1000 µg/mL in [4]; 0.1 µg/mL (≈ 0.325 µM) in series [7] (setting [18]). This compound also registered an MIC in series [8] of 200 µg/mL (≈ 651 µM).
In the case of `Cc1cc(O)ccc1C(C)C` [N, Isopropylmethylphenol], the “Minimum inhibitory concentration to standard strains” value (from here on “Minimum inhibitory concentration”) in [11] was found to be 100 µg/mL (≈ 666 µM); in series [2] it was 200 µg/mL (≈ 1330 µM); in [9] it was 200 µg/mL (≈ 1330 µM); in [4], 400 µg/mL (≈ 2660 µM); in series [6] it was 400 µg/mL (≈ 2660 µM).
For `C=CCCCCCCCCC(=O)O` [Q, Undecylenic acid], the MIC is 6.25 µg/mL (≈ 33.9 µM) in series [1] (IFO8231, 168 h); > 1000 µg/mL in series [2]; 12.5 µg/mL (≈ 67.8 µM) in [3] (Trichophyton mentagrophytes, IFO5466, 168 h); 200 µg/mL (≈ 1090 µM) in series [9]; > 1000 µg/mL in series [4]; 400 µg/mL (≈ 2170 µM) in series [5] (ATCC11828, 60 h). The MIC in series [7] (Trichophyton rubrum, IFO5467, 168 h) is 12.5 µg/mL (≈ 67.8 µM).
As for `CC1(C)S[C@@H]2[C@H](NC(=O)[C@H](C(=O)O)c3ccsc3)C(=O)N2[C@H]1C(=O)O` [L, Ticarcillin], the MIC was > 1000 µg/mL in [1] (setting [15]); 6.25 µg/mL (≈ 16.3 µM) in [2]; > 1000 µg/mL in [3] (setting [16]); 3.13 µg/mL (≈ 8.14 µM) in [4]; 50 µg/mL (≈ 130 µM) in [5] (setting [17]); 50 µg/mL (≈ 130 µM) in [6]. In addition, the MIC in [7] (setting [18]) was > 1000 µg/mL; in series [8], 6.25 µg/mL (≈ 16.3 µM).
Turning to `C[CH2][Hg][S]c1ccccc1C(=O)[O-].[Na+]` [Thimerosal], in series [12], the Fungal negativity index is listed as 100% and the Healing index is 100%.
In [12], `Clc1ccccc1C(c1ccccc1)(c1ccccc1)n1ccnc1` [Clotrimazole] yielded a Fungal negativity index of 88% and a Healing index of 60%.
For Ratanhiaphenol [F], the “Minimum inhibitory concentration” value in series [11] was 0.10 µg/mL; in series [1] (Microsporum gypseum IFO 8231, aerobic, 168 hrs) it was 0.78 µg/mL; in [2] it was 0.39 µg/mL; in [3] (Trichophyton mentagrophytes IFO 5466, aerobic, 168 hrs) it was 1.56 µg/mL; in series [9], > 10 µg/mL; in [4], 0.39 µg/mL. In addition, the “Minimum inhibitory concentration” value came to 6.25 µg/mL in series [5] (Corynebacterium acnes ATCC 11828, anaerobic, 37° C., 60 hrs); 6.25 µg/mL in [6]; 1.56 µg/mL in series [7] (Trichophyton rubrum IFO 5467, aerobic, 168 hrs); 6.25 µg/mL in series [8] (anaerobic). The “range of effective concentration (100% efficiency)” value in series [13] was 3.13 to 12.5 µg/mL; in [14] it was 1.56 to 12.5 µg/mL. In addition, the “range of effective concentration” value in series [10] (setting [19]) fell in the range of 1.56 to 6.25 µg/mL. The LD50 (as a rule, the dose at which mortality reaches 50%) in the series “Acute toxicity in mice” (oral administration) was 5 g/kg; in the series “Acute toxicity in mice” (subcutaneous administration) it was > 5 g/kg. In addition, the toxicity entry in “Acute toxicity in mice” (oral or subcutaneous single dose, mice) is “low”. The abnormal sign entry in “Acute toxicity in mice” (oral or subcutaneous single dose, mice, 16 days observation) is on record as “no abnormal sign was observed”. Also, the “Mortalities (Dead/Treated)” value in the series “Acute toxicity in mice” (oral, 1 g/kg) is 0/5; in “Acute toxicity in mice” (oral, 5 g/kg), 2/5; in the series “Acute toxicity in mice” (subcutaneous, 1 g/kg) it was 0/5; in “Acute toxicity in mice” (subcutaneous, 5 g/kg), 0/5. Further, the “healing effect compared with 1% clotrimazole solution” value in series [12] was “equivalent to that of 1% clotrimazole solution”. In addition, the Fungal negativity index in series [12] is 81%. Also, the Healing index in [12] turned out to be 67%.

Values taken from patent US4886667A, “External preparation composition” (priority 1985, dated 1989).
